Assay results taken from publication PMC6154583, “Optimized 4,5-Diarylimidazoles as Potent/Selective Inhibitors of Protein Kinase CK1δ and Their Structural Relation to p38α MAPK” (Molecules : A Journal of Synthetic Chemistry and Natural …, 2017).

Columns and labels:
Test in all cases: ProQinase 33PanQinase selectivity profiling
Type in all cases: biochemical
ABL1 = ABL1 (Homo sapiens, UniProt P00519); details: 100 nM, relative to control, read-out: Residual activity (%)
ABL2 = ABL2 (Homo sapiens, UniProt P42684); details: 100 nM, relative to control, read-out: Residual activity (%)
ACV-R1B = biological target: T1, ACV-R1B (Homo sapiens, UniProt P36896); details: 100 nM, relative to control, read-out: Residual activity (%)
T1 construct: purchased ProQinase GmbH (Freiburg, Germany)

AKT1 aa106-480 = biological target: T2, AKT1 aa106-480 (Homo sapiens, UniProt P31749); details: 100 nM, relative to control, read-out: Residual activity (%)
T2 construct: AKT1 aa106-480; purchased ProQinase GmbH (Freiburg, Germany)

Aurora-A = Aurora-A (Homo sapiens, UniProt O14965); details: 100 nM, relative to control, read-out: Residual activity (%)
BLK = BLK (Homo sapiens, UniProt P51451); details: 100 nM, relative to control, read-out: Residual activity (%)
B-RAF V600E = B-RAF V600E (Homo sapiens, UniProt P15056, V600E); details: 100 nM, relative to control, read-out: Residual activity (%)
BRSK1 = BRSK1 (Homo sapiens, UniProt Q8TDC3); details: 100 nM, relative to control, read-out: Residual activity (%)
BRSK2 = BRSK2 (Homo sapiens, UniProt Q8IWQ3); details: 100 nM, relative to control, read-out: Residual activity (%)
BTK = BTK (Homo sapiens, UniProt Q06187); details: 100 nM, relative to control, read-out: Residual activity (%)
CAMK1D = CAMK1D (Homo sapiens, UniProt Q8IU85); details: 100 nM, relative to control, read-out: Residual activity (%)
CDC42BPB = biological target: T3, CDC42BPB (Homo sapiens, UniProt Q9Y5S2); details: 100 nM, relative to control, read-out: Residual activity (%)
T3 construct: purchased ProQinase GmbH

CDC7/ASK = biological target: T4, CDC7/ASK (Homo sapiens, UniProt O00311); details: 100 nM, relative to control, read-out: Residual activity (%)
T4 construct: purchased ProQinase GmbH

CDK3/CycE1 = CDK3/CycE1 (Homo sapiens, UniProt Q00526); details: 100 nM, relative to control, read-out: Residual activity (%)
CDK4/CycD3 = CDK4/CycD3 (Homo sapiens, UniProt P11802); details: 100 nM, relative to control, read-out: Residual activity (%)
CDK7/CycH/MAT1 = CDK7/CycH/MAT1 (Homo sapiens, UniProt P50613); details: 100 nM, relative to control, read-out: Residual activity (%)
CHK2 = biological target: T5, CHK2 (Homo sapiens, UniProt O96017); details: 100 nM, relative to control, read-out: Residual activity (%)
T5 construct: purchased ProQinase GmbH

CK1-delta = CK1-delta (Homo sapiens, UniProt P48730); details: 100 nM, relative to control, read-out: Residual activity (%)
CK1-epsilon = CK1-epsilon (Homo sapiens, UniProt P49674); details: 100 nM, relative to control, read-out: Residual activity (%)
CK2-alpha2 = CK2-alpha2 (Homo sapiens, UniProt P19784); details: 100 nM, relative to control, read-out: Residual activity (%)
CLK1 = CLK1 (Homo sapiens, UniProt P49759); details: 100 nM, relative to control, read-out: Residual activity (%)
CLK2 = CLK2 (Homo sapiens, UniProt P49760); details: 100 nM, relative to control, read-out: Residual activity (%)
CSF1-R = biological target: T6, CSF1-R (Homo sapiens, UniProt P07333); details: 100 nM, relative to control, read-out: Residual activity (%)
T6 construct: purchased ProQinase GmbH

DCAMKL2 = DCAMKL2 (Homo sapiens, UniProt Q8N568); details: 100 nM, relative to control, read-out: Residual activity (%)
DYRK1A = DYRK1A (Homo sapiens, UniProt Q13627); details: 100 nM, relative to control, read-out: Residual activity (%)
EEF2K = EEF2K (Homo sapiens, UniProt O00418); details: 100 nM, relative to control, read-out: Residual activity (%)
EPHA4 = biological target: T7, EPHA4 (Homo sapiens, UniProt P54764); details: 100 nM, relative to control, read-out: Residual activity (%)
T7 construct: purchased ProQinase GmbH

EPHA5 = EPHA5 (Homo sapiens, UniProt P54756); details: 100 nM, relative to control, read-out: Residual activity (%)
JNK2 = JNK2 (Homo sapiens, UniProt P45984); details: 100 nM, relative to control, read-out: residual activity
RIPK2 = RIPK2 (Homo sapiens, UniProt O43353); details: 100 nM, relative to control, read-out: residual activity

CDK4/CycD3, sequence (P11802 whole entry): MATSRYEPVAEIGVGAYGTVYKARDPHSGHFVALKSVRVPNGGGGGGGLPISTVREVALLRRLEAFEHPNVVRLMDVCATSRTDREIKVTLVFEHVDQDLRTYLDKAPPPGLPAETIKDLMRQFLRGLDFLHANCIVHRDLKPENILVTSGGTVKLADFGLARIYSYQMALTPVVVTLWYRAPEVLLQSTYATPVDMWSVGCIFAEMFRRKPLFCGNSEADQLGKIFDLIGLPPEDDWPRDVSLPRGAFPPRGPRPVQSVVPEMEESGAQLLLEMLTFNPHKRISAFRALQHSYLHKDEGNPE
CDK4/CycD3, sequence (P30281 whole entry partner): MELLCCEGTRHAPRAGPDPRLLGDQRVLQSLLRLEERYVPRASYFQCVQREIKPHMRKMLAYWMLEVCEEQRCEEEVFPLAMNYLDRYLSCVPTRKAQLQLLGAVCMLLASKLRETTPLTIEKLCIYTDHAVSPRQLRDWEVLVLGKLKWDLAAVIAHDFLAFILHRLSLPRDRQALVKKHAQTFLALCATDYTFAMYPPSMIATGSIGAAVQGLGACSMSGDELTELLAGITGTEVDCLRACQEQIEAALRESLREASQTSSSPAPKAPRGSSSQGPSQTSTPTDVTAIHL
CK1-epsilon, sequence (P49674 whole entry): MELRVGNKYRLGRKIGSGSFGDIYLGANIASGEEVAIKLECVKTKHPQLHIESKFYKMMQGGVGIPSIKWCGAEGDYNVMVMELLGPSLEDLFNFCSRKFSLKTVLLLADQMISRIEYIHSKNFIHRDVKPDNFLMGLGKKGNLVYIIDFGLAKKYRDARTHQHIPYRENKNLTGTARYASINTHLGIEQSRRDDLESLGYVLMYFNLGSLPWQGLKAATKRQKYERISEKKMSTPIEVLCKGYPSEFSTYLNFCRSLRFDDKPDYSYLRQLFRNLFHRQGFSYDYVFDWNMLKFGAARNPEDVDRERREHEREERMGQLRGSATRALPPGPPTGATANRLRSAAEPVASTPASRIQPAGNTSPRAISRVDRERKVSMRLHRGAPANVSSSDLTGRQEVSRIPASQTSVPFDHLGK
Aurora-A, sequence (O14965 whole entry): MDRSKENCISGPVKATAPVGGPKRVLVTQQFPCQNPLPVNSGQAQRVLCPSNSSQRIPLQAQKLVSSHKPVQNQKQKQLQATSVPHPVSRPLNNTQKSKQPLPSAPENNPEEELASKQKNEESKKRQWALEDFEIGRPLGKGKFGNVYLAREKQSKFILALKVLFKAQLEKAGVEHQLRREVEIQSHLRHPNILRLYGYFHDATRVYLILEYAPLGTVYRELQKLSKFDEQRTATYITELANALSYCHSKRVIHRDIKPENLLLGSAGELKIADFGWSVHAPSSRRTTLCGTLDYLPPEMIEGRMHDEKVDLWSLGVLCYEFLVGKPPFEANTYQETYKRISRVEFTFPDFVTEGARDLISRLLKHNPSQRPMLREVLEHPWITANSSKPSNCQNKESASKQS
BRSK1, sequence (Q8TDC3 whole entry): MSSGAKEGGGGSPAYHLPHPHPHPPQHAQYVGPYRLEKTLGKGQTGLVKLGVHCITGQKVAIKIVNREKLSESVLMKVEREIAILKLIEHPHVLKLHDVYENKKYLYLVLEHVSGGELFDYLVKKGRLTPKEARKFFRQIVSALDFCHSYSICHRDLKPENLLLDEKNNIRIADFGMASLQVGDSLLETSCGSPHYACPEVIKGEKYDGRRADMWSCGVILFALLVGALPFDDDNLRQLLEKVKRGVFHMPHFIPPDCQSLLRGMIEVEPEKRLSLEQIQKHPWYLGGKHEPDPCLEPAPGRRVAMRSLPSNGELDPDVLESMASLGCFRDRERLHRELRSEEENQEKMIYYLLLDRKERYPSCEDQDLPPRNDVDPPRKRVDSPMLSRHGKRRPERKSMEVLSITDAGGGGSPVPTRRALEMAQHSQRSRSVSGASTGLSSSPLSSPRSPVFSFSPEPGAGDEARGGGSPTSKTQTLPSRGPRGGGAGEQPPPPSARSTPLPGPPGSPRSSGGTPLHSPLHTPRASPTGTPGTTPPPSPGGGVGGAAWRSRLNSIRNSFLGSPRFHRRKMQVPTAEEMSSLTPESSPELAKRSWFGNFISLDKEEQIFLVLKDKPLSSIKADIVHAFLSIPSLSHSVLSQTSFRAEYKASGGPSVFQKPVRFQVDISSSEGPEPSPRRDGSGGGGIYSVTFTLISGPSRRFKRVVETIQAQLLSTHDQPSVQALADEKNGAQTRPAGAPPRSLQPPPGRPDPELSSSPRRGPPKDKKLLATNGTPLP
ABL2, sequence (P42684 whole entry): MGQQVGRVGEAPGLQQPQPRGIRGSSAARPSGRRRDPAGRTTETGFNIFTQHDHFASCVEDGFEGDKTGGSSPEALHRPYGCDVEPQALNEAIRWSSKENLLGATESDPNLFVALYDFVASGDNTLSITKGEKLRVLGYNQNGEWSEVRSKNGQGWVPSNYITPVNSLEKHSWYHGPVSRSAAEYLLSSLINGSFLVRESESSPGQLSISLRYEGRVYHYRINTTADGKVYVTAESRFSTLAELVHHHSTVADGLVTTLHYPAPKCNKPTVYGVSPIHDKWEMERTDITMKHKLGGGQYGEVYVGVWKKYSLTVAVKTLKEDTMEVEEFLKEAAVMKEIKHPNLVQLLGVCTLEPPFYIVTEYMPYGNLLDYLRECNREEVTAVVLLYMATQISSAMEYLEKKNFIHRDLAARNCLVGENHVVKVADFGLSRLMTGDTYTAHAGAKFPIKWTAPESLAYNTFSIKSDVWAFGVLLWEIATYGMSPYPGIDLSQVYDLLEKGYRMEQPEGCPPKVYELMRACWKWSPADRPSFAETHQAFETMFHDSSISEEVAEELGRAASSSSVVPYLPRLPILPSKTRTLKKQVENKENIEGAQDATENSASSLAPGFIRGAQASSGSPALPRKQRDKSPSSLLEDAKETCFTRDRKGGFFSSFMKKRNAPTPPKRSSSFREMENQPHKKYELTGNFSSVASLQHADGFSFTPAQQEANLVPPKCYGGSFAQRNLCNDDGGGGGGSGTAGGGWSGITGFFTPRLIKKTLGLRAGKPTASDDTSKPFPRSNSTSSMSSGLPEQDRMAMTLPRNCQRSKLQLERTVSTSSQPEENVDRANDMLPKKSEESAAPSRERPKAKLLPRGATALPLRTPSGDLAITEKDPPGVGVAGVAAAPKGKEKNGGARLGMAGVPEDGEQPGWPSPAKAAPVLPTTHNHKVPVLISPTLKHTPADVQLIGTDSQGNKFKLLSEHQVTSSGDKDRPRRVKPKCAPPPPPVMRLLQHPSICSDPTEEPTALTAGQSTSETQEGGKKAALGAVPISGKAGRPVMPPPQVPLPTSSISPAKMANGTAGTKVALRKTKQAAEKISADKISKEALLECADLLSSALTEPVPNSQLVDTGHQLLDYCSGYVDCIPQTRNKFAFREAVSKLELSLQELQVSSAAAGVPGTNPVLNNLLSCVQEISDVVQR
T7 sequence (P54764 20-986): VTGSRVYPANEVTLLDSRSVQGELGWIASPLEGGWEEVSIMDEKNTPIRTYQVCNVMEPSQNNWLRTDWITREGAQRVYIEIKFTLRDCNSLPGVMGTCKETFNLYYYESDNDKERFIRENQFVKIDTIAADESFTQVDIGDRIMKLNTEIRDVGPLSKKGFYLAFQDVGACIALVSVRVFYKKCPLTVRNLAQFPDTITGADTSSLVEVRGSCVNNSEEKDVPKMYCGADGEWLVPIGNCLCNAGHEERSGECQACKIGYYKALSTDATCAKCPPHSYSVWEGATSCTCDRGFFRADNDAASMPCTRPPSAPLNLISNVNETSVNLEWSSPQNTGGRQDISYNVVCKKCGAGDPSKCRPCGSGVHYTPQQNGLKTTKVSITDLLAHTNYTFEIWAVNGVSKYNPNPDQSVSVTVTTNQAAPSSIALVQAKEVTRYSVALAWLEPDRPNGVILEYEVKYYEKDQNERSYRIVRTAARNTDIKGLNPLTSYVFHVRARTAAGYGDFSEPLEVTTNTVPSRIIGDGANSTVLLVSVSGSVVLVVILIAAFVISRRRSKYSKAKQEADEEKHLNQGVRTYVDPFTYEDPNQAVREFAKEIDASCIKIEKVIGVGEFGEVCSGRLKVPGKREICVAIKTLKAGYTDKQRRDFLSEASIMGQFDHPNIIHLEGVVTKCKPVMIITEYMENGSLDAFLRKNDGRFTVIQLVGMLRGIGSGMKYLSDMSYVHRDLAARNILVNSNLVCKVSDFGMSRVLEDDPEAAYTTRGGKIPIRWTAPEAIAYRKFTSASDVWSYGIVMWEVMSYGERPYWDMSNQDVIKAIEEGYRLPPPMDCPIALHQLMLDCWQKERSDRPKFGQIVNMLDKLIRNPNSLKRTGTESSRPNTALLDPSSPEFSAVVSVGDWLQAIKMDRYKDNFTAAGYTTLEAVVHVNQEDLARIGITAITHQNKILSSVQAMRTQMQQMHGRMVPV
T5 sequence (O96017 whole entry): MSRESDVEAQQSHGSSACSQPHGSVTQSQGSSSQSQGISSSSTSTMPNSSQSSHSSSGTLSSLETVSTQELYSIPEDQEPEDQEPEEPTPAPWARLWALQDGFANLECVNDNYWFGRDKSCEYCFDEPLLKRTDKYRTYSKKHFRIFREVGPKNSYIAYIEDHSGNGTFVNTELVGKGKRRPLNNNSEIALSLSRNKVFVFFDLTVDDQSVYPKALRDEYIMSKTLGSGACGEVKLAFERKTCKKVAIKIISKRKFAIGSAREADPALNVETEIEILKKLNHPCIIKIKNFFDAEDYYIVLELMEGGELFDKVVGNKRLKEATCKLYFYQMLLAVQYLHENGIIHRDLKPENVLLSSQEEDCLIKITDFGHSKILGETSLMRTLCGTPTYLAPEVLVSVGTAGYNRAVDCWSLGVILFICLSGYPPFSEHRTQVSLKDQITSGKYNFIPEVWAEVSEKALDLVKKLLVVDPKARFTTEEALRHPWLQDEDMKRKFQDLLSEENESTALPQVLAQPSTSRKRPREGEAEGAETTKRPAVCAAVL

COc1ccc(OC)c(CCC(=O)Nc2cc(-c3nc(SC)[nH]c3-c3ccc(F)cc3)ccn2)c1 [11b, 3-(2,5-Dimethoxyphenyl)-N-(4-(5-(4-fluorophenyl)-2-(methylthio)-1H-imidazol-4-yl)-pyridin-2-yl)-propanamide]
remaining activity at 0.1 µM (ABL1): 100% | remaining activity at 0.1 µM (ABL2): 91% | remaining activity at 0.1 µM (ACV-R1B): 101% | remaining activity at 0.1 µM (AKT1 aa106-480): 90% | remaining activity at 0.1 µM (Aurora-A): 93% | remaining activity at 0.1 µM (BLK): 77% | remaining activity at 0.1 µM (B-RAF V600E): 102% | remaining activity at 0.1 µM (BRSK1): 89% | remaining activity at 0.1 µM (BRSK2): 105% | remaining activity at 0.1 µM (BTK): 105% | remaining activity at 0.1 µM (CAMK1D): 78% | remaining activity at 0.1 µM (CDC42BPB): 88% | remaining activity at 0.1 µM (CDC7/ASK): 97% | remaining activity at 0.1 µM (CDK3/CycE1): 98% | remaining activity at 0.1 µM (CDK4/CycD3): 88% | remaining activity at 0.1 µM (CDK7/CycH/MAT1): 102% | remaining activity at 0.1 µM (CHK2): 98% | remaining activity at 0.1 µM (CK1-delta): 3% | remaining activity at 0.1 µM (CK1-epsilon): 7% | remaining activity at 0.1 µM (CK2-alpha2): 90% | remaining activity at 0.1 µM (CLK1): 105% | remaining activity at 0.1 µM (CLK2): 101% | remaining activity at 0.1 µM (CSF1-R): 104% | remaining activity at 0.1 µM (DCAMKL2): 94% | remaining activity at 0.1 µM (DYRK1A): 96% | remaining activity at 0.1 µM (EEF2K): 84% | remaining activity at 0.1 µM (EPHA4): 96% | remaining activity at 0.1 µM (EPHA5): 97% | remaining activity at 0.1 µM (JNK2): 21% | remaining activity at 0.1 µM (RIPK2): 45%
